These results are taken from patent US7361637B2, “Hypotensors” (Protein Express Co., Ltd., priority 2000, dated 2008).

Common to all, as to type: in vivo, rat
The test system of one assay is SHR male rats. As to the kind of experiment: Hypotensive effect: blood pressure by carotid cannula and pressure transducer after administration to SHR. The settings on record: for duration of the hypotensive effect from the administration / sustained hypotension at the highest: 1 mg/kg via cannula from external carotid artery. The method, then:
A group comprising three SHR male rats (12˜14 weeks age; body weight: 258˜310 g) that are pathological model animals of hypertension was used. Ab mix prepared in Example 1, P mix prepared in Example 2 and dissolved in a physiological saline, and anti-renin neutralizing antibody and captopril, which were the drugs used for comparative study, were intravenously administered at the dose of 0.44 mg/kg, 0.6 mg/kg, 0.12 mg/kg and 100 mg/kg, respectively. Measurement of blood pressure was carried out in such a manner that a cannula inserted into common carotid artery and external carotid artery was connected to a pressure transducer (P23XL; Gould Electronics) and introduced into a pressure processor signal conditioner (Gould Electronics), followed by carrying out measurement every ten minutes until 1 hour from administration of the test substance and every one hour thereafter and the data were recorded on a thermal array recorder (RS 3400; Gould Electronics). […]
A test was carried out for p 1 (pf 1-11), p 2 (pf 5-19) and p 3 (pf 27-41) prepared in Example 2 in the same manner as in Experimental Example 1 using 2 or 4 cases of SHR. The result was that, in the case of administration of 2 mg/kg of p 1, a transient hypertensive action of around 6% was noted immediately after administration, that recovered after 5 minutes from administration, then a hypotensive gradually took place thereafter to an extent of 6% at the highest and a sustained effect was confirmed until 24th hour. […] In the case of administration of 2 mg/kg of p 2, a transient hypotension of around 35% was noted immediately after administration, it recovered at 5 minutes after administration and, after that, a sustained hypotensive action was confirmed until 24th hour to an extent of around 6% at the highest. […] In the case of administration of 10 mg/kg, a hypotension of 7% was noted after 2 hours and, until 24th hour, a sustained hypotensive action where 11% was the highest was confirmed. […]

Assay [1] relates to SHR. In words: Weight of heart and kidney after 14 days of administration to SHR. The settings on record: 1.6 mg/kg intravenously once daily for 14 days. As for the experimental part: The p 1c (pf 5-11) prepared in Example 2 was intravenously administered once daily for consecutive 14 days at the dose of 1.6 mg/kg to a group comprising 4 SHRs. On the 14th day, the rats were killed by bleeding, followed by excising heart and kidney to measure their weights. The result is shown in Table 1 in terms of weight of the organ per 100 g of body weight.

In assay [2] the test system is SHR. In words: Weight of arteries after 14 days of administration to SHR. Particulars: 1.6 mg/kg intravenously once daily for 14 days. As for the experimental part:
The p 1c (pf 5-11) prepared in Example 2 was intravenously administered once daily for consecutive 14 days at the dose of 1.6 mg/kg to a group comprising 4 SHRs. On the 14th day, the rats were killed by bleeding, followed by excising heart and kidney to measure their weights. The result is shown in Table 1 in terms of weight of the organ per 100 g of body weight. […] Weight of each artery was calculated in terms of weight per each area, followed by further converting the calculated value into the value per body weight of each rat and the results were compared and shown in Table 2.

Where “and” joins values, the source holds several entries; their conditions need not be identical. Equal entries are not always repeated.

Consider `C[C@H](CS)C(=O)N1CCC[C@H]1C(=O)O` [captopril, reference compound], for which, in the assay with SHR male rats (SHR, 100 mg/kg intravenously), the “hypotensive action at the 24th hour (completion of the experiment)” value is given as “no hypotensive action was noted” and the “maximum hypotension (at the highest) until the 6th hour from the administration” value came out at 31%.
For “D-His-Pro-Phe-His-Leu-ψ-[CH2NH]-Leu-Val-Tyr [H 6137, reference compound]”, the “duration of the hypotensive effect from the administration” value with SHR male rats was “tendency of disappearance of the effect”. Also, in the assay on SHR male rats (at 3~8 hours after administration), the “sustained hypotension at the highest” value is reported as 9%.
In the case of “p 1: rat prorenin profragment peptide pf 1-11 (SEQ ID NO: 9) (LPTDTASFGRI; listed as Rattus norvegicus)”, the “transient hypertension immediately after administration” value (shortened to “transient hypertension immediately”) in the assay on SHR male rats (SHR, 2 mg/kg intravenously) was “around 6%”. The “sustained hypotension at the highest after recovery of the transient change” value with SHR male rats (SHR, 2 mg/kg intravenously, until 24th hour) came to 6%. Also, the “hypotension at 6 hours after administration” value in the assay on SHR male rats (SHR, 10 mg/kg intravenously) was “about 7%”.
Take “p 1a: rat prorenin profragment peptide pf 1-4 (SEQ ID NO: 10) (LPTD; listed as Rattus norvegicus)”: in the assay with SHR male rats (SHR, 10 mg/kg intravenously), the “sustained hypotension at the highest until 24th hour” value came to 13% and the “transient hypertension immediately” value is on record as 13%.
As to “p 1b: rat prorenin profragment peptide pf 1-7 (SEQ ID NO: 11) (LPTDTAS; listed as Rattus norvegicus)”, in the assay on SHR male rats (SHR, 10 mg/kg intravenously), the “sustained hypotension at the highest until 24th hour” value was found to be 13% and the “transient hypertension immediately” value is recorded as 17%.
For the molecule “p 1c: rat prorenin profragment peptide pf 5-11 (SEQ ID NO: 12) (TASFGRI; listed as Rattus norvegicus)”, in the assay with SHR male rats (SHR, 10 mg/kg intravenously), the “sustained hypotension at the highest until 24th hour” value is recorded as 16% and the “transient hypertension immediately” value was 21%. In the assay with SHR [1], this molecule returned a Weight of Organ, Heart, Mean Value of 0.39 g/100 g body weight; a Weight of Organ, Left Kidney, Mean Value of 0.35 g/100 g body weight; a Weight of Organ, Right Kidney, Mean Value of 0.34 g/100 g body weight. In addition, in the assay on SHR [1] (1.6 mg/kg), the Weight of Organ, Heart, individual rats is 0.37 g/100 g body weight and 0.4 g/100 g body weight (2×) and 0.39 g/100 g body weight; the Weight of Organ, Left Kidney, individual rats was 0.34 g/100 g body weight and 0.35 g/100 g body weight (3×); the Weight of Organ, Right Kidney, individual rats was 0.34 g/100 g body weight and 0.35 g/100 g body weight (2×) and 0.33 g/100 g body weight. Moreover, the “effect on hypertrophy of heart and kidney” value in the assay on SHR [1] (compared with physiological saline) was “suppresses hypertrophy of heart and kidney”. Besides, in the assay with SHR [2], the “Weight of Artery, Femoral Artery, Mean Value” is on record as 0.00089 mg/mm^2/g body weight; the “Weight of Artery, Pulmonary Artery, Mean Value” is listed as 0.00081 mg/mm^2/g body weight; the “Weight of Artery, Superior Mesenteric Artery, Mean Value” is 0.00096 mg/mm^2/g body weight. For the same molecule, in the assay on SHR [2] (1.6 mg/kg), the “Weight of Artery, Femoral Artery, individual rats” value is 0.00068 mg/mm^2/g body weight and 0.00094 mg/mm^2/g body weight and 0.00106 mg/mm^2/g body weight and 0.00087 mg/mm^2/g body weight; the “Weight of Artery, Pulmonary Artery, individual rats” value is 0.00067 mg/mm^2/g body weight and 0.00087 mg/mm^2/g body weight and 0.00088 mg/mm^2/g body weight and 0.00082 mg/mm^2/g body weight; the “Weight of Artery, Superior Mesenteric Artery, individual rats” value is 0.00094 mg/mm^2/g body weight and 0.00095 mg/mm^2/g body weight and 0.00096 mg/mm^2/g body weight and 0.001 mg/mm^2/g body weight. Further, in the assay on SHR [2] (compared with control group), the “effect on thickening of artery (remodeling of blood vessel)” value is given as “suppresses the thickening of artery”.
Regarding “p 2a: rat prorenin profragment peptide pf 12-19 (SEQ ID NO: 13) (LLKKMPSV; listed as Rattus norvegicus)”, the “duration of the hypotensive effect from the administration” value in the assay on SHR male rats was ≥ 12 h. In addition, in the assay on SHR male rats (at 5~8 hours after administration), the “sustained hypotension at the highest” value came to 11%. Further, in the assay with SHR male rats (SHR, 1 mg/kg intravenously), the “sustained hypotension at the highest until 24 hours” value turned out to be 14% and the “transient hypertension immediately” value came to 6%.
Regarding “p 2b: rat prorenin profragment peptide pf 11-15 (SEQ ID NO: 14) (ILLKK; listed as Rattus norvegicus)”, the “sustained hypotension at the highest until 24 hours” value in the assay with SHR male rats (SHR, 1 mg/kg intravenously) was “The same effect was achieved”.
